Laboratory results taken from US20080114079A1, “TRPM2-specfic inhibitors” (priority 2006, published 2008).
Entries after “also recorded” stand apart in the source; their conditions may differ. One block for each compound: values may come before it.

Tests used:
[1] = tested on: mouse bone marrow neutrophils; experiment: Ca2+ mobilization assay in chemoattractant-stimulated bone marrow neutrophils (flow cytometry, Fluo-3/Fura-red); assay type: cell-based; conditions: 100 μM, 15 min
Procedure: (§1) Ca^2+ mobilization assays. Bone marrow neutrophils (1×10^7/ml) and DCs (1×10^6/ml) were loaded with a mixture of Fluo-3 AM and Fura-Red AM as previously described (Partida-Sanchez, S. et al., 2001 Nature Medicine 7:1209-1216; Partida-Sanchez S. et al., 2004 Immunity 20:279-291). […] The accumulation of intracellular free Ca^2+ was assessed by flow cytometry by measuring the fluorescence emission of Fluo-3 in the FL-1 channel and Fura-Red in the FL-3 channel over time. Data were analyzed using FlowJo 4.0 software (Tree Star). Relative intracellular free Ca^2+ levels are expressed as the ratio between Fluo-3 and Fura-Red mean fluorescence intensity.

mouse DCs = experiment: Ca2+ mobilization assay in chemokine-stimulated DCs; assay type: cell-based; conditions: 100 μM, 15 min, CXCL12 50 ng/ml
Procedure: as §1

[2] = tested on: mouse bone marrow neutrophils; experiment: Transwell chemotaxis assay, mouse bone marrow neutrophils; assay type: cell-based
Procedure: (§2) Chemotaxis assays. Chemotaxis assays were performed as previously described (Partida-Sanchez, S. et al., 2001 Nature Medicine 7:1209-1216; Partida-Sanchez S. et al., 2004 Immunity 20:279-291). […] Treated cells (1×10^6 neutrophils or 1×10^5 DCs) were added to the upper chamber of the transwell (3-μm for neutrophils or 5-μm for DCs) (Costar). After incubating the chambers for 45 min (neutrophils) or 90 min (DCs) at 37° C., the transmigrated cells were collected from the lower chamber, fixed, and counted on a flow cytometer. The results are expressed as the mean ±SD of the chemotaxis index (CI) for triplicate wells. The CI represents the fold-change in the number of untreated or inhibitor-pretreated cells that migrated in response to the chemoattractant divided by the basal migration of untreated or antagonist pretreated cells migrating in response to control medium.

[3] = tested on: bone marrow-derived immature or TNFα-matured DCs; experiment: Transwell chemotaxis assay, bone marrow-derived DCs; assay type: cell-based, mouse; conditions: 100 μM, 15 min pretreatment
Procedure: as §2

human neutrophils = experiment: Transwell chemotaxis assay, human peripheral blood neutrophils; assay type: cell-based; conditions: 100 μM, 15 min, A5 peptide 1 μM
Procedure: as §2

[4] = HPLC analysis of catabolites after incubation with bone marrow neutrophils; assay type: in vitro ADME, mouse
Procedure: HPLC analysis of catabolites produced by CD38-expressing cells. […] The supernatants were collected after centrifugation, concentrated and flash frozen. Aliquots were analyzed by reversed-phase HPLC (Kontron Instruments) using a Multohyp BDS C18 column (250 mm×4.6 mm, particle size 5 μm, Chromatographie Service). Absorbance was measured at 270 nm using a UV detector (Kontron 432) and data were processed by the MT2 data acquisition system from Kontron Instruments. Peaks were identified by comparison to known standards and the area under each curve was quantified to determine relative amounts of each metabolite.

[5] = tested on: mouse bone marrow neutrophils; experiment: Oxidant (H2O2)-induced Ca2+ influx in bone marrow neutrophils; assay type: cell-based; conditions: 100 μM, 15 min, H2O2 100 μM
Procedure: as §1

TRPM2 channels = biological target: T1, TRPM2 channels (Homo sapiens, UniProt O94759); experiment: Whole-cell patch-clamp of ADPR-gated cation entry in TRPM2-expressing Jurkat T cells; assay type: cell-based; conditions: 300 μM ADPR in the pipette, -60 mV
T1 construct: All experiments were performed at room temperature with Jurkat T lymphocytes attached to high molecular weight poly-L-lysin; endogenous in cells; host or cells: Jurkat T lymphocytes
T1 sequence (O94759 whole entry): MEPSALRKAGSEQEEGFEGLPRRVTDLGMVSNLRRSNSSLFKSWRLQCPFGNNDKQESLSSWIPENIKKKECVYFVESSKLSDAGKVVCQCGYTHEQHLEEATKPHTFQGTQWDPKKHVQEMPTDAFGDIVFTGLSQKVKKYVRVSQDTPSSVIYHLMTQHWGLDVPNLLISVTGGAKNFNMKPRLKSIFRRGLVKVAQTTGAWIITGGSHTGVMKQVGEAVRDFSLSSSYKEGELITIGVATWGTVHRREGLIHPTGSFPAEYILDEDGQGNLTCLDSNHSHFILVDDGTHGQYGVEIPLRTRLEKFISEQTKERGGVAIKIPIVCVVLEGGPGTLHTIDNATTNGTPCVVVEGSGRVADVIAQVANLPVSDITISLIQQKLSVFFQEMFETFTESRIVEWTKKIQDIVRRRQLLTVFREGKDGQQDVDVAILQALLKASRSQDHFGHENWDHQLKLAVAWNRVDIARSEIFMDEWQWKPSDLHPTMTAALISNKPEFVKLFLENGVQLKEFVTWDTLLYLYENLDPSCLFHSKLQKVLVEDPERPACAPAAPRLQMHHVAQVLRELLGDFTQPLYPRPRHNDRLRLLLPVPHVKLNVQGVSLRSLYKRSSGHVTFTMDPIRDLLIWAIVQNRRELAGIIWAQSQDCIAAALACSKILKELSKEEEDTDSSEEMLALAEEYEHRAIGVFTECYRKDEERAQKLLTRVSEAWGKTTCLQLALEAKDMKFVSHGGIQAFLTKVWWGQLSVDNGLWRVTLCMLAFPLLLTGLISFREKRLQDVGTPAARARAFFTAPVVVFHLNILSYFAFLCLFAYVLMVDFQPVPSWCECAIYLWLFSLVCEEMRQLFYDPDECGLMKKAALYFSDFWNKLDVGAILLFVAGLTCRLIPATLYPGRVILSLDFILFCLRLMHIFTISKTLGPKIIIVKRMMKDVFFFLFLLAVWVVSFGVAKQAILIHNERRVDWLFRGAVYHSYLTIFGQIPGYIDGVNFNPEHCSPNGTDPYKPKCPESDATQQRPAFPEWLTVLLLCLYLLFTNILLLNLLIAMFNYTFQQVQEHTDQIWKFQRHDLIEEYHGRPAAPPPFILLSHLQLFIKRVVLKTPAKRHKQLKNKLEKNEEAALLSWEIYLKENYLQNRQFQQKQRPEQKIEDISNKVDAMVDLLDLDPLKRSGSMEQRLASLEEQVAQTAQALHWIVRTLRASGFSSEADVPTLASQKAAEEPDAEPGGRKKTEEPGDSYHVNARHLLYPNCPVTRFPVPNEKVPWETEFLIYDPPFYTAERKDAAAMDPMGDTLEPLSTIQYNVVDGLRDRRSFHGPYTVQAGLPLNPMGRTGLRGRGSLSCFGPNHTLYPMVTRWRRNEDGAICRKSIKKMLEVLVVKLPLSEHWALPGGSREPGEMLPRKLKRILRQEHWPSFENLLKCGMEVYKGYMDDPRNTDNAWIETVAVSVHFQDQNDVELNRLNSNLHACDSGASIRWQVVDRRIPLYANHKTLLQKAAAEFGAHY
Procedure: Electrophysiology. […] An EPC9 patch-clamp amplifier was used in conjunction with the PULSE stimulation and data acquisition software (HEKA Elektronik). The patch electrodes were made from 1.5 mm diameter borosilicate glass capillaries and filled with intracellular solution. Data were low-pass filtered at 1 kHz and compensated for both fast and slow capacity transients. Series resistance was compensated by 50-90%. All experiments were performed at room temperature with Jurkat T lymphocytes attached to high molecular weight poly-L-lysin. The pipette solution contained 145 mM K-glutamate, 8 mM NaCl, 1 mM MgCl2 and 10 mM EGTA, adjusted to pH 7.2 with KOH and to a free Ca^2+ concentration of 100 nM with CaCl2. […] The external solution contained 145 mM NaCl, 2 mM MgCl2, 1 mM CaCl2, 2.8 mM KCl, 10 mM HEPES and 10 mM glucose, adjusted to pH 7.2 with NaOH. The cells were held at −60 mV and I-V relations were obtained every 20 sec using 250 ms voltage ramps from −100 to +100 mV.

[6] = fMLP 1 μM, Ca2+-containing media
[7] = 100 μM, 15 min, fMLP 1 μM, 45 min

IC50 ([2]; 0-100 μM, 15 min, fMLP 1 μM, read-out: IC50 on chemotaxis of fMLP-stimulated mouse neutrophils): 1 to 5 µM | catabolism on incubation with CD38KO (Cd38-/-) neutrophils [4]: remained largely unchanged | stability in the absence of any cells [4]: remained intact
Compound: 8Br-cADPR
effect on intracellular Ca2+ release after IL-8 ([1]; IL-8 100 nM, Ca2+ free buffer (EGTA 2 mM)): had no effect | effect on IL-8 induced Ca2+ response ([1]; IL-8 100 nM, Ca2+-containing media): neither compound had any effect | decrease of intracellular Ca2+ release in fMLP-stimulated neutrophils ([1]; fMLP 1 μM, Ca2+ free buffer (EGTA 2 mM)): approximately 25% | effect on extracellular Ca2+ influx in fMLP-stimulated WT neutrophils [1, 6]: significantly decreased | effect on Ca2+ response of CXCL12-stimulated immature DCs (mouse DCs): blocked | effect on chemotactic response of WT neutrophils to fMLP [2, 7]: effectively blocked chemotaxis; also recorded: significantly inhibited | effect on chemotactic response of neutrophils to IL-8 ([2]; 100 μM, IL-8 100 nM, 45 min): neither 8Br-ADPR nor 8Br-cADPR blocked | effect on chemotactic response of CD38KO (Cd38-/-) neutrophils to fMLP ([2]; 15 min, fMLP 1 μM): no further inhibition | chemotactic response of TNFα-matured DCs to CCL21 [3]: neither the immature nor mature DCs migrated efficiently | chemotactic response of immature DCs to CXCL12 [3]: neither the immature nor mature DCs migrated efficiently | effect on migration of human neutrophils to FPRL1 ligand A5 peptide (human neutrophils): effectively inhibited

Compound: Nc1ncnc2c1nc(Br)n2[C@@H]1O[C@H](COP(=O)(O)O)[C@@H](O)[C@H]1O [8Br-AMP]
effect on extracellular Ca2+ influx in fMLP-stimulated WT neutrophils [1, 6]: had absolutely no effect; also recorded: does not block

stability in the absence of any cells [4]: remained intact
Compound: NC(=O)c1ccc[n+]([C@@H]2O[C@H](COP(=O)([O-])OP(=O)(O)OC[C@H]3O[C@@H](n4c(Br)nc5c(N)ncnc54)[C@H](O)[C@@H]3O)[C@@H](O)[C@H]2O)c1 [8Br-NAD^+]
effect on extracellular Ca2+ influx in fMLP-stimulated WT neutrophils [1, 6]: significantly reduced | effect on Ca2+ influx in fMLP-stimulated Parp1-/- neutrophils ([1]; fMLP 1 μM, Parp1-/-): significantly reduced | effect on H2O2-induced Ca2+ influx in WT neutrophils [5]: had no effect | effect on chemotactic response of WT neutrophils to fMLP [2, 7]: significantly inhibited | effect on chemotactic response of Parp1-/- neutrophils to fMLP ([2]; 100 μM, 15 min, fMLP 1 μM, Parp1-/-): inhibited | effect on chemotactic response of CD38KO (Cd38-/-) neutrophils to fMLP ([2]; 15 min, fMLP 1 μM): no further inhibition

Compound: adenosine diphosphate ribose [ADPR]
membrane current on infusion into Jurkat cells (TRPM2 channels): caused a slowly developing inward current
